Assay results from article PMC7385619, “A triple action CDK4/6-PI3K-BET inhibitor with augmented cancer cell cytotoxicity” (Cell Discovery, 2020).

System: BRD4 binding to the MYC TSS in Huh7 and Jeko-1 cells
Experiment: Chromatin immunoprecipitation of BRD4 at the MYC transcriptional start site
Format: cell-based, human
Method: assay for comparison relative to the no-drug control and to the time zero number of cells for assessment of growth inhibition (values between 0 and 100) and lethality (values less than 0), […]
Hepatocellular carcinoma cells (Hep3B, HepG2, and Huh7), neuroblastoma cells (CHLA-255, CHLA-136, and SMS-KNCR), mantle cell lymphoma (Granta-519, Mino, and Jeko-1), or normal tonsillar epithelial cells (RRP008) were seeded in complete medium in 96-well tissue culture plates at 2.5 x 10^3 to 1 x 10^4 cells per well, respectively. Cells were incubated overnight to allow for attachment of adherent cells. […]
or 100 µM in triplicate the following day. Cells were incubated for 48 hours at 37 °C then treated with either CCK8 reagent (Dojindo Molecular Technologies, Rockville, MD) or Alamar Blue (ThermoFisher Scientific) and incubated for 3-6 hours at 37 °C. For CCK8, absorbance was measured at 450 nm; for Alamar Blue, fluorescence signals were read as emission at 590 nm after excitation at 560 nm. Averaged values were normalized as a percentage of control and plotted and regressed for dose response using GraphPad Prism (GraphPad Software, Inc., La […]
Chromatin immunoprecipitation
Chromatin immunoprecipitation assays using antibodies against BRD4 and an isotype control and primers designed to the MYC transcriptional site and a non-regulated upstream locus were performed as previously described8. […]

CN(C)C(=O)c1cc2cnc(Nc3ccc(-c4csc5c(=O)cc(N6CCOCC6)oc45)cc3)nc2n1C1CCCC1 [SRX3177]
occupancy of BRD4 at the transcriptional start site (TSS) of MYC by ChIP: abrogated binding of BRD4 to the MYC TSS
